Measured values taken from patent US20140017701A1, “CHIMERIC PDK1 KINASES” (priority 2011, published 2014).

Tests used:
Type in all cases: biochemical
PKCβ = molecular target: T1, PKCβ (Homo sapiens, UniProt P05771); experiment: Protein kinase activity assay, PKCβ; conditions: Table I b; percentage of catalytic activity compared to DMSO; lipid activator mix, histone H1
T1 construct: purchased ProQinase
Protocol: (§1) The protein kinase activity assays were performed essentially as previously described (Engel, M. et al. Embo J 25, 5469-80 (2006)). The assays were done in a 96-well format and 4 μl aliquots spotted on P81 phospho-cellulose papers (Whatman) using epMotion 5070 (Eppendorf), washed in 0.01% phosphoric acid, dried, and then exposed and analyzed using PhosphoImager technology (FLA-9000 Starion, Fujifilm). Atypical PKC (aPKC) activity assays were performed in a total volume of 20 μl containing 50 mM Tris-HCl pH 7.5, 0.05 mg/ml BSA, 0.1% (v/v) 2-mercaptoethanol, 10 mM MgCl2, 100 μM [γ^32P]ATP (5-50 cpm/pmol), 0.003% Brij, 30-50 ng of aPKC, and MBP (10 μM) or PSRtide (100 μM) as the substrate. After 15 min pre-incubation, the kinase reaction was started by addition of 6 μl of an ATP-Mg mix. When required, lipid activator (LA) phosphatidylserine (100 ng) or PKC lipid activator mix (1×) was included in the pre-incubation. Low basal activity and consistent activation of 1-592 PKCζ and 498 PKCζ by LA was obtained when the pre-incubation time was started by addition of the whole mix on the enzyme.
The substrates were T308tide (200 μM) for PDK1, Kemptide (100 μM) for PKA, and Crosstide (100 μM) for SGK, PKB, S6K, and PRK2. The activity assays for PKCα, β, θ, and δ were performed in the presence of PKC lipid activator mix (1×) using 3 μM of histone H1 as substrate. […]

[1] = molecular target: T2, GST-PDK1 1-556 with PIF-pocket mutated to mimic PKCz (Homo sapiens, UniProt O15530, F157L/I118V/I119H/L113V/R131K/T128Q/T148C/V124I); experiment: Activity assay with full length GST-PDK1 1-556 mutated to mimic the PIF-pocket of PKCz; conditions: without the dm mutation
T2 construct: a GST-PDK1 1-556 (full length, without the dm mutation); made in house; host or cells: HEK293 (general method for GST-fused kinases)
T2 sequence (O15530 1-556 L113V/I118V/I119H/V124I/T128Q/R131K/T148C/F157L): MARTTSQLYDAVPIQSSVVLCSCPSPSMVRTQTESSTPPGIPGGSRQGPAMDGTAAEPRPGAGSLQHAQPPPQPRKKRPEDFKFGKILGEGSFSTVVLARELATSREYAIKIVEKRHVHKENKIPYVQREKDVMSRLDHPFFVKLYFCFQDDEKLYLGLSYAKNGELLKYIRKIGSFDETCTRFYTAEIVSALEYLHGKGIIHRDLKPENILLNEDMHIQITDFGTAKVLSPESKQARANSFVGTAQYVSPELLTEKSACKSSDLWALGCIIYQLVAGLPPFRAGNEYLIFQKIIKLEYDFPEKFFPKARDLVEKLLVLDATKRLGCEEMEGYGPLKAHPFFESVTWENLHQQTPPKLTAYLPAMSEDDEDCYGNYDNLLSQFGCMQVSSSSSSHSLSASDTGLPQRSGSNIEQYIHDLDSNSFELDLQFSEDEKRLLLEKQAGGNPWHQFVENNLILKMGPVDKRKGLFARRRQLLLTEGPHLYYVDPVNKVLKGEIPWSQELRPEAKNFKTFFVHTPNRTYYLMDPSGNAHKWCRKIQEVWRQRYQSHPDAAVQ
Excerpt: Thus, non-mutated PDK1 50-359 protein and other constructs of PDK1 lacking the (dm) mutations, when mutated at the PIF-pocket to mimic the PIF-pocket of other AGC kinases, are also expected to transduce the conformational change similarly to the dmPDK1 50-359. […] The preferred construct for mutagenesis to create the chimeric proteins is dmPDK1 50-359. Also preferred is the use of PDK1 50-359 which can be produced in high quality for crystallization studies or other suitable constructs, for example PDK1 76-359 that corresponds to a sequence of aminoacids observed in the crystals of PDK1 in different crystal packings.

PDK1/PKCζ chimera = molecular target: T3, PDK1/PKCζ chimera (Homo sapiens, UniProt O15530, F157L/I118V/I119H/L113V/Q292A/R131K/T128Q/T148C/V124I/Y288G); experiment: Activity assay with PDK1/PKCζ chimera; conditions: PDK1 50-359/PKCζ chimera, PDK1[P-P-ζ]
T3 construct: His (N); made in house; host or cells: insect cells
T3 sequence (O15530 50-359 L113V/I118V/I119H/V124I/T128Q/R131K/T148C/F157L/Y288G/Q292A): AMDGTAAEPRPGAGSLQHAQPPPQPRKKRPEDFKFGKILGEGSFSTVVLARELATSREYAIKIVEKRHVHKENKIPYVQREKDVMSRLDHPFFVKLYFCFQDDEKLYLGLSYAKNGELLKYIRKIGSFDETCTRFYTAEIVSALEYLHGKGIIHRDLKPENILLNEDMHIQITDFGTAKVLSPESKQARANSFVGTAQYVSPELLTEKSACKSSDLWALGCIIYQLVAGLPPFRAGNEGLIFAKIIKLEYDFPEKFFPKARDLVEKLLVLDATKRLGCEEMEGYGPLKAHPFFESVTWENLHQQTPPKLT
Protocol: as §1
The substrates were T308tide (200 μM) for PDK1, Kemptide (100 μM) for PKA, and Crosstide (100 μM) for SGK, PKB, S6K, and PRK2. The activity assays for PKCα, β, θ, and δ were performed in the presence of PKC lipid activator mix (1×) using 3 μM of histone H1 as substrate.

T1 sequence (P05771 whole entry, species assumed): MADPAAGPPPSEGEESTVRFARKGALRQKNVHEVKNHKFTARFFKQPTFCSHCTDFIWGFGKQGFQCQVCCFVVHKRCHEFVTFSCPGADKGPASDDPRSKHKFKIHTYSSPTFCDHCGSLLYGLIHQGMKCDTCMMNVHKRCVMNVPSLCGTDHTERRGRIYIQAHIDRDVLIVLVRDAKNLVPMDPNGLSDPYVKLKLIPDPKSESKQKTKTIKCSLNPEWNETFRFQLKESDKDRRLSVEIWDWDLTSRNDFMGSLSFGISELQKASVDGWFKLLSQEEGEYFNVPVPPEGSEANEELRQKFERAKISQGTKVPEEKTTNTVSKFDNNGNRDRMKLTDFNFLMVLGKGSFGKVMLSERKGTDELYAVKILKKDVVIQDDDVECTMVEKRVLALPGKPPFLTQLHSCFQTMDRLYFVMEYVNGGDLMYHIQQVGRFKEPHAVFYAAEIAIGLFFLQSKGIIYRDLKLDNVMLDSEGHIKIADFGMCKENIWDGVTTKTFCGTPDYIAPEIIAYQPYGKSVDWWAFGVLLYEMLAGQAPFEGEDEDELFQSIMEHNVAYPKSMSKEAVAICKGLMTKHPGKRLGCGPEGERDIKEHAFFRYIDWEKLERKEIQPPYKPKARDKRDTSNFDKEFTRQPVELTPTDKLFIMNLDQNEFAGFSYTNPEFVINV

Row | Activity (%) Classical PKCs PKCβ (PKCβ) | Effect on activity of GST-PDK1 1-556 mutated to mimic PIF-pocket of PKCz [1] | Effect on PDK1/PKCζ chimera activity (PDK1/PKCζ chimera) | Structure (SMILES)
1 | 148% | inhibited | inhibits | Cl.O=C(O)CC(Cc1nc2cc(-c3ccccc3)ccc2[nH]1)c1ccc(Cl)cc1 (stereo not shown) [PS168]
2 | 138% |  |  | Cl.O=C(O)CC(Cc1nc2c(Cl)cc(Cl)cc2[nH]1)c1ccc(Cl)cc1 (stereo not shown) [PS171]
